The source made the active and inactive calls. The calls are words filed in the database; no cut-off is given here.
How the values were obtained:
HL-60 [1] = assay: Induction of apoptosis in human HL60 cells assessed as activation of caspase 3 by Western blotting; format: functional, cell-based
HL-60 [2] = assay: Cytotoxicity against human HL60 cells assessed as LDH release after 72 hrs; format: functional, cell-based; details: HL-60, 72 h
HL-60 [3] = assay: Cytotoxicity against human HL60 cells after 72 hrs by MTT assay; format: functional, cell-based; details: HL-60, 72 h
HL-60 [4] = assay: Cytotoxicity against human HL60 cells after 24 hrs by MTT assay; format: functional, cell-based; details: HL-60, 24 h
PBMC [5] = assay: Cytotoxicity against human PBMC after 72 hrs by MTT assay; format: cell-based
HL-60 [6] = assay: Induction of apoptosis in human HL60 cells assessed as activation of caspase 7 by Western blotting; format: functional, cell-based
HL-60 [7] = assay: Cytotoxicity against human HL60 cells after 16 hrs by MTT assay; format: functional, cell-based; details: HL-60, 16 h
HL-60 [8] = assay: Cytotoxicity against human HL60 cells after 6 hrs by MTT assay; format: functional, cell-based; details: HL-60, 6 h
Jurkat = assay: Cytotoxicity against human Jurkat cells after 72 hrs by MTT assay; format: functional, cell-based
HL-60 [9] = assay: Induction of apoptosis in human HL60 cells assessed as mitochondrial membrane depolarization at 1.0 uM after 12 hrs by flow cytometry; format: functional
HL-60 [10] = assay: Induction of apoptosis in human HL60 cells assessed as increase in sub-G0/G1 population at 1 uM after 24 hrs by flow cytometry; format: functional
HL-60 [11] = assay: Induction of apoptosis in human HL60 cells assessed as pyknotic nuclear fragments at 10 uM after 24 hrs in presence of Z-VAD-fmk; format: functional, cell-based
HL-60 [12] = assay: Induction of apoptosis in human HL60 cells assessed as pyknotic nuclear fragments at 10 uM after 24 hrs; format: functional, cell-based
HL-60 [13] = assay: Induction of apoptosis in human HL60 cells assessed as mitochondrial membrane depolarization at 1.0 uM after 24 hrs by flow cytometry; format: functional
PBMC [14] = assay: Induction of apoptosis in human PBMC assessed as mitochondrial membrane depolarization at 0.1 to 100 uM after 24 hrs; format: functional, cell-based
HL-60 [15] = assay: Induction of apoptosis in human HL60 cells assessed as increase in sub-G0/G1 population at 1 uM after 16 hrs by flow cytometry; format: functional
HL-60 [16] = assay: Reversal of induction of apoptosis in human HL60 cells assessed as formation of sub-G0/G1 population at 10 uM after 24 hrs by flow cytometry in presence of Z-VAD-fmk; format: functional, cell-based
HL-60 [17] = assay: Induction of apoptosis in human HL60 cells assessed as mitochondrial membrane depolarization at 10 uM after 24 hrs by flow cytometry in presence of Z-VAD-fmk; format: functional, cell-based
HL-60 [18] = assay: Reversal of induction of apoptosis in human HL60 cells assessed as inhibition of caspase 3 activation at 1 uM after 24 hrs by Western blotting in presence of Z-VAD-fmk; format: functional, cell-based
[19] = Stability in human HL60 cells assessed as percentage drug remaining at 10 uM after 16 hrs; format: ADME, cell-based; details: HL-60 cells, read-out: Activity
[20] = Stability in human PBMC assessed as percentage drug remaining at 10 uM after 24 hrs; format: ADME, cell-based; details: read-out: Activity
[21] = Stability in human HL60 cells assessed as percentage drug remaining at 10 uM after 24 hrs; format: ADME, cell-based; details: HL-60 cells, read-out: Activity
HL-60 [22] = assay: Stability in human HL60 cells assessed as formation of 10-beta-(p-bromophenoxy)-dihydroartemisinin tetrahydrofuran acetate at 10 uM after 24 hrs; format: ADME, cell-based; details: hl-60, 24 h

| Compound | IC50 (HL-60 [2]) [nM] | IC50 (HL-60 [3]) [nM] | IC50 (HL-60 [4]) [nM] | IC50 (PBMC [5]) [nM] | IC50 (HL-60 [7]) [nM] | IC50 (HL-60 [8]) [nM] | IC50 (Jurkat) [nM] | Activity (HL-60 [10]) [%] | Activity (HL-60 [11]) | Activity (HL-60 [12]) | other results |
| --- | --- | --- | --- | --- | --- | --- | --- | --- | --- | --- | --- |
| C[C@H]1[C@@H](Oc2ccc(F)cc2)O[C@@H]2O[C@]3(C)CC[C@H]4[C@H](C)CC[C@@H]1[C@@]24O3 | 32400 | 25500 | 460 | > 250000 | 3780 | > 100000 | 30700 | – | – | – | Activity (HL-60 [1]): inactive; Activity (HL-60 [6]): inactive |
| COc1cccc2c1C(=O)c1c(O)c3c(c(O)c1C2=O)C[C@@](O)(C(=O)CO)C[C@@H]3O[C@H]1C[C@H](N)[C@H](O)[C@H](C)O1 [DOXORUBICIN] | – | – | – | – | – | – | 90 | – | – | – | – |
| C[C@H]1[C@@H](Oc2ccc(F)cc2)O[C@@H]2O[C@]3(C)CC[C@H]4[C@H](C)CC[C@@H]1[C@@]24OO3 | 760 | 540 | 510 | > 250000 | 6080 | > 100000 | 230 | 62.9 | inactive | Active | Activity (HL-60 [9]): 65.8%; Activity (HL-60 [13]): 29.8%; Activity (PBMC [14]): inactive; Activity (HL-60 [15]): 24.3% |
| C[C@H]1[C@@H](O)O[C@@H]2O[C@@]3(C)CC[C@H]4[C@H](C)CC[C@@H]1[C@@]24OO3 [ARTENIMOL] | 1560 | – | – | > 250000 | – | – | 650 | 60 | inactive | Active | Activity (HL-60 [16]): Active; Activity (HL-60 [17]): Active; Activity (HL-60 [18]): Active |
| C[C@H]1[C@@H](Oc2ccc(Br)cc2)O[C@@H]2O[C@]3(C)CC[C@H]4[C@H](C)CC[C@@H]1[C@@]24OO3 | 730 | 120 | – | > 250000 | – | – | 340 | 60 | – | – | remaining at 16 h, 10 µM [19]: 37%; remaining at 24 h, 10 µM [20]: 64%; remaining at 24 h, 10 µM [21]: 19%; Activity (HL-60 [22]): 7% |
